In test [1] the test system is CD8^+ T cells. Put plainly: Intracellular cytokine staining (IFN-γ), splenocytes of S221-infected wild-type mice. The class given is cell-based, C57BL/6 mice. How it is done:
(§1) All Ab were purchased from eBioscience with the exception of anti-CD8α-PerCP and anti-CD107a-FITC which were obtained from BD Biosciences. RBC in blood were lysed using RBC lysis buffer (eBioscience). For surface staining, splenocytes or blood cells were washed, incubated with supernatant from 2.4G2-producing hybridoma cells to block Fc receptors, and labeled with anti-CD8α-PerCP, anti-CD44-APC, and anti-CD62L-PE. For intracellular cytokine staining, 10^6 splenocytes or 10^5 blood cells were plated in 96-well U-bottom plates and stimulated with individual DENV peptides (0.1 μg/ml) in the presence of brefeldin A (GolgiPlug, BD Biosciences) for 5 h. For CD107a staining, CD107a-FITC (or rat IgG2a-FITC) was added to the wells at the same time as the peptide. Cells were washed, incubated with 2.4G2 supernatant, labeled with anti-CD8α-PerCP, fixed and permeabilized using the BD Cytofix/Cytoperm Kit, and stained with anti-IFN-γ-APC and anti-TNF-α-PE. Samples were read on a FACS Caliber (BD Biosciences) and analyzed using FloJo software (Tree Star, Inc.)
To confirm that the IFN-γ response to the MHC class I-binding DENV peptides was mediated by CD8^+ T cells, intracellular cytokine staining (ICS) on CD8^+ T cells isolated from S221-infected wild-type mice was performed. Splenocytes were harvested from C57BL/6 mice 7 days after infection with 10^11 genomic equivlalents (GE) S221 and were re-stimulated in vitro with individual DENV2 peptides or an irrelevant peptide (irr) at 0.1 μg/ml in the presence of brefeldin A for 5 h. Cells were then stained for surface CD8 and intracellular IFN-γ and analyzed by flow cytometry. […] The percent of CD8^+ T cells producing IFN-γ is indicated. Referring to FIG. 2B, the figure is a summary of the DENV2-specific CD8^+ IFN-γ^+ response. The response to the irrelevant control peptide was subtracted from the responses to each DENV2 peptide. Each symbol represents one mouse and the bar represents the geometric mean. The identification of the 12 positive peptides for S221 was confirmed by the intracellular cytokine staining (ICS) (FIG. 2A), and the response to the 8 most dominant peptides was determined (FIG. 2B). The responses ranged from 0.14% recognizing NS2A 36 to 9.8% of CD8^+ T cells recognizing NS4B 99.
Splenocytes were harvested from naïve C57BL/6 mice or mice 7 days after infection with 10^11 GE of S221. The percent of CD8^+ T cells expressing CD44 and CD62L was determined in four independent studies (FIG. 3A). On day 7 after infection, splenocytes were stimulated with the eight major DENV2 peptides (individually; at 0.1 μg/ml) in the presence of brefeldin A, and stained for surface CD8 and intracellular IFN-γ. The percent of CD8^+ T cells producing IFN-γ in response to the irrelevant control peptide was subtracted from the response to each DENV2 peptide to determine the net response. The net responses to the eight major DENV2 peptides were added to determine the percent of DENV2-specific CD44^hi, CD62^lo, and CD44^hiCD62L^lo CD8^+ T cells (FIG. 3B). The data are expressed as the mean percent±SEM of 11-14 mice tested in at least four independent experiments.

Test [2] has as its system CD8^+ T cells. Description: TNF-α and CD107a staining after peptide re-stimulation. The class given is cell-based, wild-type or IFN-α/βR^−/− mice. To be noted: splenocytes day 7 after S221 infection. How it is done:
as §1
Because polyfunctional CD8^+ T cell responses are associated with protection (Harari et al., Immunol Rev 211:236 (2006)), the phenotype of the DENV-specific CD8^+ T cells in wild-type and IFN-α/βR^−/− mice was studied in more detail by measuring CD107a expression (CD107a, or LAMP-1, is expressed on the cell surface upon degranulation) and TNF-α production for two of the DENV-specific CD8^+ T cell populations, as described above. To collect the data, splenocytes harvested from wild-type or IFN-α/βR^−/− mice 7 days after infection with 10^11 or 10^10 GE of S221, respectively, were re-stimulated in vitro with C51-59, NS4B99-107, or an irrelevant peptide. An anti-CD107a Ab was added for the duration of the stimulation. Cells were then stained for surface CD8, intracellular IFN-γ and TNF-α, and analyzed by flow cytometry.

For test [3], the target named is T1, purified H-2 K^b molecules (Mus musculus, UniProt P01901).
T1 construct: made in house
T1 sequence (P61769 21-119): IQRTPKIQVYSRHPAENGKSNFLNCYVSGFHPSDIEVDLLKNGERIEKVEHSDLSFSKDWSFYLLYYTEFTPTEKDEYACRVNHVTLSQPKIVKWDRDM
T1 sequence (P01901 22-369): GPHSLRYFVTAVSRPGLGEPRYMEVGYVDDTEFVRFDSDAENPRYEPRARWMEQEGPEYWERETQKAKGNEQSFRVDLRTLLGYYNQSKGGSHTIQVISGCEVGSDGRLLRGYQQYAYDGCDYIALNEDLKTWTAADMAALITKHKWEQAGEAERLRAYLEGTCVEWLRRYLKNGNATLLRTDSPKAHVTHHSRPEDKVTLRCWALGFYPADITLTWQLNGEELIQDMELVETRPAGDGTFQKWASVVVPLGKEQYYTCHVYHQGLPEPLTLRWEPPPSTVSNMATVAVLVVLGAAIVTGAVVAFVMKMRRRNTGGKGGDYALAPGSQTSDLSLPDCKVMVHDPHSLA
Put plainly: MHC peptide-binding assay, purified H-2 K^b. To be noted: purified MHC, radiolabeled peptide competition; read-out: Binding affinity (IC50 nM) H2-K^b. The method, then: (§2) MHC purification and quantitative assays to measure the binding affinity of peptides to purified H-2 K^b and H-2 D^b molecules were performed as previously described (Sidney et al., Curr Protoc Immunol 18:1813 2001); Vitiello et al., J Immunol 157:5555 (1996)). Briefly, 0.1-1 nM of radiolabeled peptide was co-incubated at room temperature with 1 μM to 1 nM of purified MHC in the presence of 1-3 μM human β2-microglobulin (Scripps Laboratories) and a mixture of protease inhibitors. After a 2 day incubation, binding of the radiolabeled peptide to the corresponding MHC class I molecule was determined by capturing MHC/peptide complexes on Lumitrac 600 microplates (Greiner Bio-One) coated with either the Y3 (anti-H-2 K^b) or 28-14-8S (anti-H-2 D^b, L^d and D^q) Ab, followed by measurement of bound counts per minute (cpm) using the TopCount microscintillation counter (Packard).
To confirm the MHC class I restriction of the 12 identified epitopes, measurements were performed of their MHC binding capacity using purified K^b and D^b molecules in an in vitro binding assay. Seven of the 12 epitopes bound the predicted allele with either high or intermediate affinity, as indicated by an IC50 of <50 nM or <500 nM, respectively. The five remaining epitopes also bound with biologically relevant affinities in the 500-2000 nM range.

Test [4] addresses T2, purified H-2 D^b molecules (Mus musculus, UniProt P01899).
T2 construct: made in house
Description: MHC peptide-binding assay, purified H-2 D^b. To be noted: purified MHC, radiolabeled peptide competition; read-out: Binding affinity (IC50 nM) H2-D^b. How it is done:
as §2, with “Briefly,” for “MHC purification and quantitative assays to measure the binding affinity of peptides to purified H-2 K^b and H-2 D^b molecules were performed as previously described (Sidney et al., Curr Protoc Immunol 18:1813 2001); Vitiello et al., J Immunol 157:5555 (1996)). Briefly,”

Ends that are not written are not given here.

T2 sequence (P61769 21-119): as the sequence (P61769 21-119) above
T2 sequence (P01899 25-362): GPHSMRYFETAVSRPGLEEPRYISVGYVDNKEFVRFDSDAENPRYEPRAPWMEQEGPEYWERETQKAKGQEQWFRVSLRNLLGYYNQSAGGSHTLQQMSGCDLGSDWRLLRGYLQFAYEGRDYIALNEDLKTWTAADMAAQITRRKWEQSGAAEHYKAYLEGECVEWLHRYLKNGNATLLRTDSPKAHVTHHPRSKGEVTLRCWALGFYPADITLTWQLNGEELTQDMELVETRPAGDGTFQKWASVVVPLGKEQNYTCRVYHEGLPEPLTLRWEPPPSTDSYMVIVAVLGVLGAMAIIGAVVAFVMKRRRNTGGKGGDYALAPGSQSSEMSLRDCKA

Consider YSQVNPITL [NS4B99-107], for which the “percent of CD8^+ T cells producing IFN-γ / recognizing the peptide” value in the test on CD8^+ T cells [1] (wild-type C57BL/6, day 7 after 10^11 GE S221, peptide 0.1 μg/ml, 5 h) was determined as 9.8%. Moreover, the “share of the DENV2-specific response” value in the test with CD8^+ T cells [1] (wild-type C57BL/6 mice) amounted to 30%. For the same sequence, the “% of splenic CD8^+ T cells (corresponding to average number)” value with CD8^+ T cells [1] (wild-type mice, day 7 after 10^11 GE S221) worked out at 5.9%. Further, the “number of CD8^+ T cells producing IFN-γ (average)” value in the test with CD8^+ T cells [1] (wild-type mice, spleen, day 7 after 10^11 GE S221) is listed as 6.3×10^5 CD8^+ T cells. In the test with CD8^+ T cells [2], the “CD107a surface expression (degranulation)” value is listed as “expressed CD107a on the surface” and the “TNF-α production by peptide-specific CD8^+ T cells” value was “produced TNF-α”. Moreover, the IC50 (in general, the midpoint of a concentration-inhibition curve) in test [3] worked out at 1890 nM. In addition, in test [4], the IC50 came out at 1.3 nM.

The values above are taken from US20110150914A1, “COMPOSITIONS AND METHODS FOR DENGUE VIRUS (DV) TREATMENT AND VACCINATION” (priority 2008, published 2011).
